Data reported in US6489324B2, “Piperazine compounds as inhibitors of MMP or TNF” (Fujisawa Pharmaceutical Co., Ltd., priority 1996, dated 2002).

Assays:
Human collagenase = biological target: T1, Human collagenase (Homo sapiens, UniProt P03956); assay: Inhibitory Activity of Collagenase; type: biochemical; details: at 1 × 10^−6M; activated collagenase from human skin fibroblast culture medium, FTTC-labeled calf skin type I collagen, 37° C., 120 minutes
T1 construct: endogenous in cells; host or cells: human skin fibroblasts stimulated with interleukin-1β
T1 sequence (P03956 100-469): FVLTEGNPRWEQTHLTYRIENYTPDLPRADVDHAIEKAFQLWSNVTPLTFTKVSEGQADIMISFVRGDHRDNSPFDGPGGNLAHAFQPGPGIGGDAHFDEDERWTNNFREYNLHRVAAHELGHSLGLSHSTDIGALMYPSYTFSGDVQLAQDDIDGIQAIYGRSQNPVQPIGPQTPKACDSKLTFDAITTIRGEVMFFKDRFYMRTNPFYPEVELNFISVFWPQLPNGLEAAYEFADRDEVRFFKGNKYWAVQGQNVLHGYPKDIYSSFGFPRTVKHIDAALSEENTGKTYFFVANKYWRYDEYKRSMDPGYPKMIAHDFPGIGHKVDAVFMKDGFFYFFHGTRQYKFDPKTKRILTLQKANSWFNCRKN
Description: Human collagenase was prepared from the culture medium of human skin fibroblast stimulated with interleukin-1β (1 ng/ml). Latent collagenase was activated by incubation with trypsin (200 μg/ml) at 37° C. for 60 minutes and the reaction was stopped by adding soybean trypsin inhibitor (800 μg/ml). Collagenase activity was determined using FTTC-labeled calf skin type I collagen. FTTC-collagen (2.5 mg/ml) was incubated at 37° C. for 120 minutes with the activated collagenase and test compound in 50 mM Tris buffer (containing 5 mM CaCl2, 200 mM NaCl and 0.02% NaN3, pH 7.5). After stopping the enzyme reaction by adding the equal volume of 70% ethanol-200 mM Tris buffer (pH 9.5), the reaction mixture was centrifuged, and collagenase activity was estimated by measuring the fluorescence intensity of supernatant at 495 nm (excitation) and 520 nm (emission).

CS(=O)(=O)N1CCN(S(=O)(=O)c2ccc([N+](=O)[O-])cc2)[C@@H](C(=O)NO)C1 [Example 5, (2R)-1-(4-nitrobenzenesulfonyl)-4-methanesulfonylpiperazine-2-(N-hydroxy)carboxamide]
Inhibitory activity (Human collagenase): 95.3% at 1 × 10^−6M

CS(=O)(=O)NCCS(=O)(=O)N1CCN(S(=O)(=O)c2ccc(-c3ccc(C(F)(F)F)cc3)s2)[C@@H](C(=O)NO)C1 [Example 181, (2R)-N-Hydroxy-4-(2-(methanesulfonylamino)ethanesulfonyl]-1-[5-(4-trifluoromethylphenyl)thiophene-2-sulfonyl]-2-piperazinecarboxamide]
melting point: 105 to 108 °C

CS(=O)(=O)N1CCN(S(=O)(=O)/C=C/c2ccccc2)[C@@H](C(=O)NO)C1 [Example 189, (2R)-N-Hydroxy-1-(2-phenyl-2-trans-ethenylsulfonyl)-4-methanesulfonyl-2-piperazinecarboxamide]
melting point: 94 to 99 °C

CN(C)S(=O)(=O)N1CCN(S(=O)(=O)c2ccc(-c3ccc(CC#N)cc3)s2)[C@@H](C(=O)NO)C1 [Example 173, (2R)-1-[5-(4-Cyanomethylphenyl)thiophene-2-sulfonyl)-4-(N,N-dimethylaminosulfonyl)-N-hydroxy-2-piperazinecarboxamide]
melting point: 170 to 172 °C

CS(=O)(=O)N1CCN(S(=O)(=O)c2ccc(-c3cccs3)cc2)[C@@H](C(=O)NOC2CCCCO2)C1 (stereo partly drawn) [Example 61, (2R)-4-Methanesulfonyl-1-[4-(thiophen-2-yl)benzenesulfonyl]-N-(2-tetrahydropyranyloxy)-2-piperazinecarboxamide]
melting point: 194 to 195 °C

CN(C)S(=O)(=O)N1CCN(S(=O)(=O)c2ccc(Oc3ccccc3)cc2)[C@@H](C(=O)NO)C1 [Example 176, (2R)-4-(N,N-Dimethylaminosulfonyl)-N-hydroxy-1-(4-phenoxybenzenesulfonyl)-2-piperazinecarboxamide]
melting point: 153 to 155 °C

CCN(C)S(=O)(=O)[C@@]1(C(=O)NO)CNCCN1S(=O)(=O)c1ccc(-c2ccc(Cl)cc2)s1 [Example 162, (2R)-1-[5-(4-Chlorophenyl)thiophene-2-sulfonyl]-N-hydroxy-2-(N-methylethylaminosulfonyl)-2-piperazinecarboxamide]
melting point: 170 to 172 °C

CS(=O)(=O)NCCS(=O)(=O)N1CCN(S(=O)(=O)c2ccc(-c3ccc(Cl)cc3)s2)[C@@H](C(=O)NO)C1 [Example 182, (2R)-1-[5-(4-Chlorophenyl)thiophene-2-sulfonyl]-N-hydroxy-4-[2-(methanesulfonylamino)ethanesulfonyl]-2-piperazinecarboxamide]
melting point: 118 to 122 °C

O=C(NO)[C@H]1CN(C(=O)Nc2ccccc2)CCN1S(=O)(=O)c1ccc(-c2ccc(F)cc2)s1 [Example 108, (2R)-1-[5-(4-Fluorophenyl)thiophene-2-sulfonyl]-N-hydroxy-4-[(N-phenyl)aminocarbonyl]-2-piperazinecarboxamide]
melting point: 187 to 188 °C

O=C(NO)[C@H]1CN(S(=O)(=O)CCc2ccccn2)CCN1S(=O)(=O)c1ccc(-c2ccccc2)s1 [Example 106, (2R)-N-Hydroxy-1-(5-phenylthiophene-2-sulfonyl)-4-[2-(2-pyridyl)-ethanesulfonyl]-2-piperazinecarboxamide]
melting point: 170 to 174 °C

O=C(NO)[C@H]1CN(C(=O)NC2CCCCC2)CCN1S(=O)(=O)c1ccc(-c2ccc(F)cc2)s1 [Example 109, (2R)-4-[(N-Cyclohexyl)aminocarbonyl]-1-[5-(4-fluorophenyl)-thiophene-2-sulfonyl]-N-hydroxy-2-piperazinecarboxamide]
melting point: 111 to 123 °C

O=C(NO)[C@H]1CN(S(=O)(=O)c2ccc(-c3ccon3)s2)CCN1S(=O)(=O)c1ccc(-c2ccccc2)s1 [Example 139, (2R)-N-Hydroxy-4-[5-(isoxazol-3-yl)thiophene-2-sulfonyl]1-(5-phenylthiophene-2-sulfonyl)-2-piperazinecarboxamide]
melting point: 204 °C
